Test results published in EP3818828A1 (priority 2019, dated 2021).
Values after ≈ are worked out from the molar mass of the structure shown. Like-named read-outs stand apart in the source and are kept apart here.

Columns and labels:
Botrytis cinerea = test: Toxicity determination (EC50) on mycelial growth, growth rate method; format: cell-based
Procedure: (§1) The inhibition of samples for testing on the mycelial growth of plant pathogenic fungi for testing is determined with a growth rate method. 3-(3',4'-methylenedioxy phenyl)-N-n-propyl acrylamide, 3-(3',4'-methylenedioxy phenyl)-piperidine acrylate and five control agents are dissolved with dimethyl sulfoxide (DMSO), then formulated at 5-7 concentrations of different gradients for test following the trial test results, with the same concentration of DMSO as the control solvent, each treatment in triplicate. Fungal cakes with a diameter of 4 mm are taken from the edge of the colony, inoculated into the center of a PDA plate containing different agents of different concentrations and the DMSO control, with one piece of fungal cake inoculated in each plate (with a diameter of […]), and incubated in a constant temperature incubator at a temperature of 22±1.5°C. 7 days later (10-20 days may be needed for some pathogenic fungi), the diameter of the colony is measured with a cross over method according to the mycelial growth profile of the control pathogenic fungi, then the inhibition rate of mycelial growth is calculated.
(§2) 3-(3',4'-methylenedioxy phenyl)-piperidine acrylate, the control agents 96.5% of chlorothalonil technical and 97.0% of procymidone technical. Agents for testing and the control agents chlorothalonil and procymidone are treated at 5-8 concentrations of different gradients on the basis of preliminary tests to ensure that the inhibition rates for treatments at all the concentrations are between 10% and 90%.
(§3) For specific determination methods, with reference to Embodiment 1. The concentration of active ingredients in the culture medium is used as the testing concentration to calculate the toxic regression equation (Y=bx+a) and the median inhibition concentration EC50, 95% confidence limit, and relative toxicity. Relative toxicity (compared to chlorothalonil) = EC50 of chlorothalonil / EC50 of 3-(3',4'-methylenedioxy phenyl)-piperidine acrylate, and relative toxicity (compared to procymidone) = EC50 of procymidone / EC50 of 3-(3',4'-methylenedioxy phenyl)-piperidine acrylate.

Sclerotinia sclerotiorum = test: as above; format: cell-based
Procedure: as §1, §2, §3

Valsa mali = test: as above; format: cell-based; conditions: for EC50: median inhibition concentration
Procedure: as §1, §2, §3

Colletotrichum capsici = test: as above; format: cell-based; conditions: for EC50: median inhibition concentration
Procedure: as §1, §2, §3

Exserohilum turcicum = test: as above; format: cell-based; conditions: for EC50: median inhibition concentration
Procedure: as §1, §2, §3

[1] = test system: damping-off (P. aphanidermatum, P.capsici); test: In-vivo greenhouse control of damping-off of tomatoes; conditions: Tomato; sick soil; 0.80 mg/mL (active ingredients)
Procedure: (§4) 3.88 g of 3-(3',4'-methylenedioxy phenyl)-N-n-propyl acrylamide was weighed and dissolved in 25 g of absolute ethyl alcohol, then 6 g of emulsifier 0203B was added, and mixed uniformly with stirring to get 10% of 3-(3',4'-methylenedioxy phenyl)-N-n-propyl acrylamide EC.
(§5) 5.61 g of 3-(3',4'-methylenedioxy phenyl)-piperidine acrylate was weighed and dissolved in 25 g of absolute ethyl alcohol, then 6 g of emulsifier 0203B was added, and mixed uniformly with stirring to get 14% of 3-(3',4'-methylenedioxy phenyl)-piperidine acrylate EC.
(§6) Sick soil of damping-off (P. aphanidermatum, P.capsici) was collected from the fields of tomatoes, eggplants and peppers in a solar greenhouse, and mixed evenly in equal proportion. Tomatoes (Variety: Song Tian Fen Yang Yang, 100 grains), eggplants (Variety: Lanza No. 2 F1 long eggplant, 100 grains), pepper (Longjiao No. 2 F1, 100 grains) were seeded quantitatively with the sick soil in pots (diameter: 15 cm) in a greenhouse, additionally with sterile vermiculite as the control (each 100 grains for determining the germination rate). […] Mortality of seedlings was investigated after the seedlings had grown 2 true leaves, and the control effect of each treatment on damping-off was calculated. […]

Fusarium graminearum = test: microbe, parasite or virus in culture; format: cell-based; conditions: for EC50: median inhibition concentration
[2] = test system: damping-off (P. aphanidermatum, P.capsici); test: In-vivo greenhouse control of damping-off of eggplants; conditions: Eggplant; sick soil; 0.80 mg/mL (active ingredients)
Procedure: as §4, §5, §6

cucumber powdery mildew = test: In-vivo greenhouse determination of systemic action (root-irrigation) on cucumber powdery mildew
Procedure: as §5
Cucumber (Variety: Tianjin Mici) was sown in big pots (with a diameter of 30 cm) in a greenhouse, remaining 3 plants for each pot after emergence. The first root-irrigation was started at the early onset of cucumber powdery mildew (first appearance of spots on the true leaves). 14% of 3-(3',4'-methylenedioxy phenyl)-piperidine acrylate EC was diluted at three concentrations of 1.00, 0.667 and 0.50 mg/mL (active ingredients), 500 mL liquor for each pot. The root-irrigations were conducted every 7 days consecutively for 3 times. 10 days after the third root-irrigation, the number of sick leaves at each grade of cucumber powdery mildew was investigated for the whole plant following the grading standard of 9 grades, to calculate the disease index and the control effect.

[3] = test system: damping-off (P. aphanidermatum, P.capsici); test: In-vivo greenhouse control of damping-off of peppers; conditions: Pepper; sick soil; 0.80 mg/mL (active ingredients)
Procedure: as §4, §5, §6

[4] = EC50 of chlorothalonil / EC50 of agent
[5] = EC50 of procymidone / EC50 of agent
[6] = median inhibition concentration

**Q.** What does the source list for `O=C(/C=C/c1ccc2c(c1)OCO2)N1CCCCC1` [3-(3',4'-methylenedioxyphenyl)-piperidine acrylate]?
**A.** Relative Toxicity (Compared to Chlorothalonil) (Botrytis cinerea; [4]): 0.84; Relative Toxicity (Compared to Procymidone) (Botrytis cinerea; [5]): 0.37; EC50 (Botrytis cinerea; [6]): 212 µg/mL (≈ 816 µM); Relative Toxicity (Compared to Chlorothalonil) (Sclerotinia sclerotiorum; [4]): 0.28; Relative Toxicity (Compared to Procymidone) (Sclerotinia sclerotiorum; [5]): 0.31; EC50 (Sclerotinia sclerotiorum; [6]): 227 µg/mL (≈ 875 µM); EC50 (Valsa mali; Cytospora mali, read-out: EC50): 90 µg/mL (≈ 347 µM); Relative Toxicity (Compared to Chlorothalonil) (Valsa mali; [4]): 4.68; Relative Toxicity (Compared to Procymidone) (Valsa mali; [5]): 4.78; EC50 (Valsa mali; listed as 66#): 89.4 µg/mL (≈ 345 µM); EC50 (Colletotrichum capsici; Colletotrichum truncatum, read-out: EC50): 130 µg/mL (≈ 501 µM); Relative Toxicity (Compared to Chlorothalonil) (Colletotrichum capsici; [4]): 3.23; Relative Toxicity (Compared to Procymidone) (Colletotrichum capsici; [5]): 4.13; EC50 (Colletotrichum capsici; listed as 66#): 125.3 µg/mL (≈ 483 µM); Relative Toxicity (Compared to Chlorothalonil) (Exserohilum turcicum; [4]): 3.21; Relative Toxicity (Compared to Procymidone) (Exserohilum turcicum; [5]): 0.82; EC50 (Exserohilum turcicum; listed as 66#): 128.1 µg/mL (≈ 494 µM); EC50 (Exserohilum turcicum; read-out: EC50): 130 µg/mL (≈ 501 µM); Control Effect [1]: 61.41%; Relative Toxicity (Compared to Chlorothalonil) (Fusarium graminearum; [4]): 5.89; Relative Toxicity (Compared to Procymidone) (Fusarium graminearum; [5]): 1.80; EC50 (Fusarium graminearum): 80 µg/mL (≈ 309 µM); EC50 (Fusarium graminearum; listed as 66#): 79.6 µg/mL (≈ 307 µM); Control Effect [2]: 63.47%; systemic activity (cucumber powdery mildew; cucumber powdery mildew, uptake by roots and delivery upwards): no systemic activity; effects of root-irrigations on cucumber powdery mildew (cucumber powdery mildew; root-irrigations at 1.00, 0.667 and 0.50 mg/mL at the early onset): no effects; Control Effect [3]: 67.71%
